Experimental data taken from publication PMC8432172, “Properties of Transport Mediated by the Human Organic Cation Transporter 2 Studied in a Polarized Three-Dimensional Epithelial Cell Culture Model” (International Journal of Molecular Sciences, 2021).
“And” between values parts separate entries of the source, which are not always exact repeats. Equal values may be shown once. “Also recorded” adds a separate entry of the source.

Columns and labels:
[1] = molecular target: T1, hOCT2 (Homo sapiens, UniProt O15244); test: ASP+ uptake (saturation and inhibition) in hOCT2-HEK cells; format: cell-based; set-up: expressed in transfected cells; host or cells: HEK293, stably transfected; gift of Prof; Koepsell (University of Würzburg)
T1 sequence (O15244 1-555): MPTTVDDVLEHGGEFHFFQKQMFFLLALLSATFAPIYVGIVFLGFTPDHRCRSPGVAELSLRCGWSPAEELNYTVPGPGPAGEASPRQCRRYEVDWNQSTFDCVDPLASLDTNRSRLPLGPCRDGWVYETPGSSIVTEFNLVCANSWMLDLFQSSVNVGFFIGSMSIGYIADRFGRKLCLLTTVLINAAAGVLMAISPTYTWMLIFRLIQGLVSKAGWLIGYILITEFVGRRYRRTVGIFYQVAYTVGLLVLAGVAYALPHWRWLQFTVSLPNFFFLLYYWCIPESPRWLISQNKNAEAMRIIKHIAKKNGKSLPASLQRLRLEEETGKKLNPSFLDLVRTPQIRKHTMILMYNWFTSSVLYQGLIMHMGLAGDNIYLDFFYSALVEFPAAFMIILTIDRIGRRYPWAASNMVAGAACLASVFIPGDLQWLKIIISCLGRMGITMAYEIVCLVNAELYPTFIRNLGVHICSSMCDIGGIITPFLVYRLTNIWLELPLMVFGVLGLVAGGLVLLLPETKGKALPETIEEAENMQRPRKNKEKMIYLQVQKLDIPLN

[2] = molecular target: T1, hOCT2; test: ASP+ uptake (saturation and inhibition) in hOCT2-MDCK cysts; format: cell-based; set-up: The full-length hOCT2 tagged at the carboxy-terminus with GFP (hOCT2-GFP); expressed in transfected cells; host or cells: MDCK II cells (ECACC 00062107), retroviral transduction with pQCXIH, grown as cysts in BME2
[3] = molecular target: T1, hOCT2; test: Acute regulation of ASP+ uptake and ASP+ transport kinetics in hOCT2-MDCK cysts (10 min incubation with kinase/calmodulin inhibitors); format: cell-based; set-up: The full-length hOCT2 tagged at the carboxy-terminus with GFP (hOCT2-GFP); expressed in transfected cells; host or cells: MDCK II cells (ECACC 00062107), retroviral transduction with pQCXIH, grown as cysts in BME2; conditions: for Acute regulation of initial ASP+ uptake after 10 min incubation: 4 µM ASP+, calmidazolium 5 µM, aminogenistein 10 µM, TBBz 10 µM
Method: (§1) The organic cation ASP^+ was used as a fluorescent substrate of hOCT2 [54]. […] To evaluate hOCT2 function, cellular fluorescence was measured before and after ASP^+ addition in the hOCT2-HEK cells and hOCT2-MDCK and EV-MDCK cysts. Transport measurements were performed at T = 37 °C. […] The effects of the CKII regulation pathway on the kinetic parameters of ASP^+ uptake in hOCT2- MDCK-3D were investigated, comparing the saturation curves in the presence or absence of the regulator.

[4] = tested on: hOCT2; test: Acute regulation of ASP+ uptake in hOCT2-HEK cells (10 min incubation with kinase/calmodulin inhibitors); format: cell-based, human; conditions: 1 µM ASP+, calmidazolium 5 µM, aminogenistein 10 µM, TBBz 10 µM
Method: as §1

[5] = tested on: endogenous canine OCT2; test: ASP+ uptake in EV-MDCK cysts (empty vector); format: cell-based; conditions: EV-MDCK cysts (GFP alone); 1 mM TPA+
Method: Upon the addition of 4 µM ASP^+, an increase in cellular fluorescence was observed over time. This fluorescence increase was much higher in the hOCT2-MDCK than the EV-MDCK cysts. […] The slope of the linear range of the ASP^+ uptake increase measured in the first 2 min after ASP^+ addition (arbitrary fluorescence units/[…]) was used as the measurement of the transporter function.
The organic cation ASP^+ was used as a fluorescent substrate of hOCT2 [54]. […] To evaluate hOCT2 function, cellular fluorescence was measured before and after ASP^+ addition in the hOCT2-HEK cells and hOCT2-MDCK and EV-MDCK cysts. Transport measurements were performed at T = 37 °C.

[6] = hOCT2-HEK cells, 1 µM ASP+, 37 °C
[7] = hOCT2-HEK cells, 1 µM ASP+, 37 °C, read-out: IC50 for the inhibition of ASP+ uptake
[8] = hOCT2-MDCK cysts, 4 µM ASP+, 37 °C
[9] = hOCT2-MDCK cysts, 4 µM ASP+, 37 °C, read-out: IC50 for the inhibition of ASP+ uptake

Row | Structure (SMILES) | IC50 [1, 7] | IC50 [2, 9] | logIC50 ± SEM for the inhibition of ASP+ uptake [1, 6] | logIC50 ± SEM for the inhibition of ASP+ uptake [2, 8] | Acute regulation of initial ASP+ uptake after 10 min incubation [4] | Acute regulation of initial ASP+ uptake after 10 min incubation [3] | also measured
1 | CN(C)c1ccc(C=Cc2cc[n+](C)cc2)cc1 [ASP^+, 4-(4-(dimethylamino)styryl)-N-methylpyridinium] | – | – | – | – | – | – | Km ([1]; hOCT2-HEK cells, 0-20 µM ASP+, uptake in presence of 1 mM TPA+ subtracted, 37 °C, read-out: Km ± SEM of specific ASP+ uptake): 3.1 ± 0.2 µM; Km ([2]; hOCT2-MDCK cysts, 0-20 µM ASP+, uptake in presence of 1 mM TPA+ subtracted, 37 °C, read-out: Km ± SEM of specific ASP+ uptake): 3.6 ± 1.2 µM; Vmax of ASP+ transport, control (-TBBz) ([3]; 10 min preincubation with control solution): 6.1 ± 0.1 a.u./s^2; Km ([3]; 10 min preincubation with control solution, read-out: Km of ASP+ transport, control (-TBBz)): 2.6 ± 0.2 µM
2 | Brc1c(Br)c(Br)c2[nH]cnc2c1Br [TBBz, 4,5,6,7-tetrabromobenzimidazole] | – | – | – | – | only in the hOCT2-MDCK cysts | rapid decrease in ASP^+ uptake only in the hOCT2-MDCK cysts | Vmax of ASP+ transport under CKII inhibition (+TBBz) ([3]; 10 min preincubation with 10 µM TBBz): 3.9 ± 0.8 a.u./s^2
3 | CC[N+](CC)(CC)CC [TEA^+, tetraethylammonium] | 7.6 µM | 21.3 µM | −5.1 ± 0.1 and −5.12 ± 0.08 | −4.7 ± 0.1 and −4.67 ± 0.11 | – | – | –
4 | CCCCC[N+](CCCCC)(CCCCC)CCCCC [TPA^+, tetrapentylammonium] | – | – | −5.9 ± 0.2 and −5.85 ± 0.11 | −6.1 ± 0.1 and −6.04 ± 0.05 | – | – | Inhibition of uptake of 4 µM ASP+ by 1 mM competitor [5]: significantly inhibited; IC50 [1]: 1.4 µM; IC50 [2]: 0.9 µM; Inhibition of uptake of 4 µM ASP+ by 1 mM competitor ([2]; hOCT2-MDCK cysts, 1 mM TPA+ in uptake buffer): almost completely inhibited; also recorded: completely suppressed
5 | Nc1ccc(-c2cc(=O)c3cc(O)ccc3o2)cc1 [aminogenistein] | – | – | – | – | rapid decrease in ASP^+ uptake | rapid decrease in ASP^+ uptake | –
6 | Clc1ccc(C(c2ccc(Cl)cc2)n2cc[n+](CC(OCc3ccc(Cl)cc3Cl)c3ccc(Cl)cc3Cl)c2)cc1 (stereo not drawn) [calmidazolium] | – | – | – | – | rapid decrease in ASP^+ uptake | rapid decrease in ASP^+ uptake | –

The next lines start with results.

Row | IC50 [1, 7] | IC50 [2, 9] | Structure (SMILES) | logIC50 ± SEM for the inhibition of ASP+ uptake [1, 6] | logIC50 ± SEM for the inhibition of ASP+ uptake [2, 8] | Acute regulation of initial ASP+ uptake after 10 min incubation [4] | Acute regulation of initial ASP+ uptake after 10 min incubation [3] | also measured
7 | 1.1 µM | 15.4 µM | CCS(=O)(=O)N1CC(CC#N)(n2cc(-c3ncnc4[nH]ccc34)cn2)C1 [Baricitinib, baricitinib] | −6.00 ± 0.06 | −4.81 ± 0.06 | – | – | logIC50 ± SEM for the inhibition of ASP+ uptake ([1]; hOCT2-HEK cells, 1 µM ASP+, 37 °C, listed as baricitinib): −6.0 ± 0.1; logIC50 ± SEM for the inhibition of ASP+ uptake ([2]; hOCT2-MDCK cysts, 4 µM ASP+, 37 °C, listed as baricitinib): −4.8 ± 0.1
8 | 804 µM | 884 µM | CN(C)C(=N)N=C(N)N [Metformin, metformin] | −3.10 ± 0.11 | −3.05 ± 0.09 | – | – | logIC50 ± SEM for the inhibition of ASP+ uptake ([1]; hOCT2-HEK cells, 1 µM ASP+, 37 °C, listed as metformin): −3.1 ± 0.1; logIC50 ± SEM for the inhibition of ASP+ uptake ([2]; hOCT2-MDCK cysts, 4 µM ASP+, 37 °C, listed as metformin): −3.1 ± 0.1
